PubChem BioAssay AID1963444 (Molecular Pharmacology Branch, DTP, NCI, 2024)

System: HSSY-II complex spheroid growth, percent test/control
Test: Anticancer human tumor HSSY-II cell line growth inhibition [Asc];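 note: spheroids exposed to drug for 7 days before reading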
Conditions: for IC50: curve of first compound; for viability, T/C: stronger effect = lower value
Protocol: Multicellular complex tumor spheroid response to apoptosis pathway targeting inhibitors Alrizomadlin, Pelcitoclax, and Dasminapant in combination with a variety of drugs and investigational agents in selected tumor cell lines
The MDM2 inhibitor alrizomadlin, the Bcl-2/Bcl-xL inhibitor pelcitoclax, and the IAPs inhibitor dasminapant were evaluated both individually and in combination with standard of care and investigational anticancer small molecules within a complex spheroid model of solid tumors. . Complex spheroids include a stromal component modeled by human endothelial cells (HUVEC) and fibroblasts modeled by human mesenchymal stem cells (MSCs). The concentration ranges selected for each drug and investigational agent were based upon clinically achievable concentrations if the clinical Cmax of the agent was known.
Compounds. The drugs and investigational agents: alrizomadlin (APG-115; NSC831270), pelcitoclax (APG-1252; NSC835773), dasminapant (APG-1387;NSC834197), TAK-243 (NSC785004), copanlisib (NSC809693), olaparib (NSC753686), talazoparib (NSC767125), cobimetinib (NSC 768068), eltanexor (KPT-8602, NSC 794443), abemaciclib (NSC 768073), sotorasib (NSC818433), adagrasib (NSC 831453), MRTX-1133 (NSC 836407), Iadademestat (ORY1001, NSC 806812), and RMC-4630 (NSC839698), were obtained from the NCI Developmental Therapeutics Program Chemical Repository. The FDA-approved anticancer drug set is available from the Developmental Therapeutics Program at https://dtp.cancer.gov/organization/dscb/obtaining/available plates.htm. […] The stock solutions were prepared in dimethyl sulfoxide (DMSO, Sigma-Aldrich, St. Louis, MO, cat. D2650) at 800-fold the tested concentration and stored at -70 degrees C prior to their use. All drugs and investigational agents were tested over a range starting from a high concentration at or near the clinical Cmax and decreasing in half-log increments. If the clinical Cmax for an agent had not been determined, the highest concentration tested was 10 microM.
The patient-derived cancer (PDC) cell lines include five colon adenocarcinomas: 186277-243-T-J2-PDC, 616215-338-R-J1-PDC, 439559-082-T-J2-PDC, 463943-066-T-J2-PDC, and 519858-162-T-J1-PDC; three pancreatic carcinomas: 323965-272-R-J2-PDC, 521955-158-R6-J3-PDC, and 521955-158-R2-J5-PDC; two uterine sarcomas: 327498-152-R-J2-PDC and 993429-296-R-J1-PDC; two rhabdomyosarcomas: 755483-174-R-J1-PDC and 772245-204-R-J1-PDC; two soft tissue sarcomas: 126254-015-R-J1-PDC and 494315-158-R-J1-PDC; two malignant fibrous histiocytomas: 317291-083-R-J1-PDC and 596521-263-R-J1-PDC; two breast carcinomas: 171881-019-R-J1-PDC and 885512-296-R-J2-PDC; and one ovarian carcinoma: 6556581-035-R-J-PDC were obtained from the NCI PDMR, (https://pdmr.cancer.gov). The established cell lines HSSY-2 synovial sarcoma (RRID:CVCL 8719), SYO-1 synovial sarcoma (RRID:CVCL_7146), MPNST malignant peripheral neural sheath tumor were obtained from the Sloan Kettering Institute. The following established cell lines were purchased from the American Type Culture Collection (ATCC, Manassas, VA), Sor the received from the NCI repository:, PANC-1 pancreatic carcinoma (CRL-1469, RRID:CVCL_0480), OVCAR-5 ovarian carcinoma (RRID:CVCL_1628), OVCAR-8 ovarian carcinoma (RRID:CVCL_1629), , MCF-7 breast carcinoma (CRL-12584, RRID:CVCL_0031), MDA-MB-231 breast carcinoma (CRL-12532, RRID:CVCL_0062), NCI-H1876 small cell lung carcinoma (CRL-5902, RRID:CVCL_1503), NCI-H510A small cell lung carcinoma (HTB-184, RRID:CVCL_1565), NCI-H1417 (CRL-5869, RRID:CVCL_1469), and NCI-H196 small cell lung carcinoma (CRL-5823, RRID:CVCL_1509). Dr. Peter Houghton (Greehey Children's Cancer Research Institute, University of Texas Health Science Center, San Antonio, TX) provided Rh-18 rhabdomyosarcoma (RRID:CVCL_1659). Pooled donor human umbilical vein endothelial cells (HUVEC, Lonza, cat. CC-2519) and human mesenchymal stem cells (hMSC, Lonza, cat. PT-2501) were purchased from Lonza (Walkersville, MD).
Cell Culture. […]

[1] = second compound 0.03 µM, first compound 0.00316 µM
[2] = second compound 0.03 µM, first compound 0.01 µM
[3] = second compound 0.03 µM, first compound 0.0316 µM
[4] = second compound 0.03 µM, first compound 0.1 µM
[5] = second compound 0.03 µM, first compound 0.316 µM
[6] = second compound 0.03 µM, first compound 1 µM
[7] = second compound 0.0949 µM, first compound 0.00316 µM
[8] = second compound 0.0949 µM, first compound 0.01 µM
[9] = second compound 0.0949 µM, first compound 0.0316 µM
[10] = second compound 0.0949 µM, first compound 0.1 µM
[11] = second compound 0.0949 µM, first compound 0.316 µM
[12] = second compound 0.0949 µM, first compound 1 µM
[13] = second compound 0.3 µM, first compound 0.00316 µM
[14] = second compound 0.3 µM, first compound 0.01 µM
[15] = second compound 0.3 µM, first compound 0.0316 µM
[16] = second compound 0.3 µM, first compound 0.1 µM
[17] = second compound 0.3 µM, first compound 0.316 µM
[18] = second compound 0.3 µM, first compound 1 µM
[19] = second compound 0.949 µM, first compound 0.00316 µM
[20] = second compound 0.949 µM, first compound 0.01 µM
[21] = second compound 0.949 µM, first compound 0.0316 µM
[22] = second compound 0.949 µM, first compound 0.1 µM
[23] = second compound 0.949 µM, first compound 0.316 µM
[24] = second compound 0.949 µM, first compound 1 µM
[25] = second compound 3 µM, first compound 0.00316 µM
[26] = second compound 3 µM, first compound 0.01 µM
[27] = second compound 3 µM, first compound 0.0316 µM
[28] = second compound 3 µM, first compound 0.1 µM
[29] = second compound 3 µM, first compound 0.316 µM
[30] = second compound 3 µM, first compound 1 µM

| SMILES | IC50 (second compound 0.03 µM) | IC50 (second compound 0.0949 µM) | IC50 (second compound 0.3 µM) | IC50 (second compound 0.949 µM) | IC50 (second compound 3 µM) | viability, T/C [1] | viability, T/C [2] | viability, T/C [3] | viability, T/C [4] | viability, T/C [5] | viability, T/C [6] | viability, T/C [7] | viability, T/C [8] | viability, T/C [9] | viability, T/C [10] | viability, T/C [11] | viability, T/C [12] | viability, T/C [13] | viability, T/C [14] | viability, T/C [15] | also measured |
| --- | --- | --- | --- | --- | --- | --- | --- | --- | --- | --- | --- | --- | --- | --- | --- | --- | --- | --- | --- | --- | --- |
| CCN1CCN(Cc2ccc(Nc3ncc(F)c(-c4cc(F)c5nc(C)n(C(C)C)c5c4)n3)nc2)CC1 + CCN1C(C(=O)NC23CCC(C(=O)O)(CC2)CC3)C(c2cccc(Cl)c2F)C2(C(=O)Nc3cc(Cl)ccc32)C12CCCCC2 | 83.5 nM | 16.8 nM | < 3.16 nM | < 3.16 nM | < 3.16 nM | 90.3% | 72.4% | 58.7% | 49.1% | 39.5% | 22.7% | 63% | 57.5% | 41.1% | 34% | 26.1% | 12.1% | 27.4% | 22.6% | 24.6% | viability, T/C [16]: 19.2%; viability, T/C [17]: 13.8%; viability, T/C [18]: 5.79%; viability, T/C [19]: 8.49%; viability, T/C [20]: 8.58%; viability, T/C [21]: 8.12%; viability, T/C [22]: 6.47%; viability, T/C [23]: 6.16%; viability, T/C [24]: 3.21%; viability, T/C [25]: 2.42%; viability, T/C [26]: 2.83%; viability, T/C [27]: 2.95%; viability, T/C [28]: 2.31%; viability, T/C [29]: 2.12%; viability, T/C [30]: 4.53% |
| O=C(c1ccc(F)c(F)c1Nc1ccc(I)cc1F)N1CC(O)([C@@H]2CCCCN2)C1 + CCN1C(C(=O)NC23CCC(C(=O)O)(CC2)CC3)C(c2cccc(Cl)c2F)C2(C(=O)Nc3cc(Cl)ccc32)C12CCCCC2 | 485 nM | 186 nM | < 3.16 nM | < 3.16 nM | < 3.16 nM | 101% | 96.6% | 77.7% | 98.5% | 66.7% | 21.7% | 66.7% | 70.8% | 67.9% | 59.9% | 41.2% | 15.8% | 30.3% | 25.7% | 34.2% | viability, T/C [16]: 28.1%; viability, T/C [17]: 24.2%; viability, T/C [18]: 7.55%; viability, T/C [19]: 6.94%; viability, T/C [20]: 9.74%; viability, T/C [21]: 7.24%; viability, T/C [22]: 6.73%; viability, T/C [23]: 5.75%; viability, T/C [24]: 2.34%; viability, T/C [25]: 2.22%; viability, T/C [26]: 2.17%; viability, T/C [27]: 2.09%; viability, T/C [28]: 2.02%; viability, T/C [29]: 1.16%; viability, T/C [30]: 0.62% |
